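Assay format: 96-well plates, 48-hour exposure. GI50 is the concentration that inhibits growth by half.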 Activity calls are given as the source filed them. Rule as the data show it: active = GI50 up to about 1.1 µM and inactive = higher.
Key:
Assay in all cases: DTP human tumour cell line panel, 48 h
OVCAR-8 = system: OVCAR-8
786-0 = system: 786-0
RXF 393 = system: RXF 393
HCT-15 = system: HCT-15
IGROV-1 = system: IGROV-1
HOP-92 = system: HOP-92
SK-OV-3 = system: SK-OV-3
U-251 = system: U-251
MDA-MB-231 = system: MDA-MB-231
DU-145 = system: DU-145
HCT-116 = system: HCT-116
CAKI-1 = system: CAKI-1
TK-10 = system: TK-10
LOX IMVI = system: LOX IMVI
RPMI-8226 = system: RPMI-8226
MDA-MB-435 = system: MDA-MB-435
SR = system: SR
SF-295 = system: SF-295
SF-268 = system: SF-268
OVCAR-5 = system: OVCAR-5

SMILES	GI50 (OVCAR-8)	GI50 (786-0)	GI50 (RXF 393)	GI50 (HCT-15)	GI50 (IGROV-1)	GI50 (HOP-92)	GI50 (SK-OV-3)	GI50 (U-251)	GI50 (MDA-MB-231)	GI50 (DU-145)	GI50 (HCT-116)	GI50 (CAKI-1)	GI50 (TK-10)	GI50 (LOX IMVI)	GI50 (RPMI-8226)	GI50 (MDA-MB-435)	GI50 (SR)	GI50 (SF-295)	GI50 (SF-268)	GI50 (OVCAR-5)
Cc1ccc(C2=Nc3cccc4cccc(c34)N2)cc1	> 100 µM (inactive)	> 100 µM (inactive)	> 100 µM (inactive)	> 100 µM	> 100 µM (inactive)	> 100 µM (inactive)	> 100 µM (inactive)	> 100 µM (inactive)	> 100 µM (inactive)	> 100 µM (inactive)	> 100 µM (inactive)	> 100 µM (inactive)	> 100 µM (inactive)	> 100 µM (inactive)	> 100 µM (inactive)	> 100 µM (inactive)	> 100 µM (inactive)	> 100 µM (inactive)	> 100 µM (inactive)	–
O=C(c1ccccc1)C1C[C@H]2CO[C@H](c3ccccc3)N2C1=O (some centres not stated)	> 100 µM (inactive)	> 100 µM (inactive)	> 100 µM (inactive)	> 100 µM	> 100 µM (inactive)	> 100 µM (inactive)	–	> 100 µM (inactive)	> 100 µM (inactive)	> 100 µM (inactive)	> 100 µM (inactive)	> 100 µM (inactive)	> 100 µM (inactive)	> 100 µM (inactive)	> 100 µM (inactive)	> 100 µM (inactive)	> 100 µM (inactive)	> 100 µM (inactive)	> 100 µM (inactive)	> 100 µM (inactive)
CCCC/C=C1\CCC(CN2CCOCC2)C1=O (configuration not stated)	10 µM (inactive)	1.8 µM (inactive)	1.51 µM (inactive)	–	14.3 µM (inactive)	1.83 µM (inactive)	17.1 µM (inactive)	3.53 µM (inactive)	3.78 µM (inactive)	16.9 µM (inactive)	2.04 µM (inactive)	1.92 µM (inactive)	9.31 µM (inactive)	1.24 µM (inactive)	0.15 µM (active)	10.7 µM (inactive)	1.73 µM (inactive)	16.3 µM (inactive)	11.5 µM (inactive)	17.4 µM (inactive)
COC(=O)/C(=C\C(=O)c1ccc(Br)cc1)NN=C(c1ccccc1)c1ccccc1	> 10 µM (inactive)	> 10 µM (inactive)	> 10 µM (inactive)	> 10 µM	> 10 µM (inactive)	> 10 µM (inactive)	> 10 µM (inactive)	–	> 10 µM (inactive)	> 10 µM (inactive)	–	> 10 µM (inactive)	> 10 µM (inactive)	> 10 µM (inactive)	> 10 µM (inactive)	> 10 µM (inactive)	> 10 µM (inactive)	> 10 µM (inactive)	> 10 µM (inactive)	–
Cc1cc(C#N)c(Nc2c(C)cccc2[N+](=O)[O-])s1	42.9 µM (inactive)	26.9 µM (inactive)	16.4 µM (inactive)	50 µM	–	24.3 µM (inactive)	35.4 µM (inactive)	35.7 µM (inactive)	24.7 µM (inactive)	36.2 µM (inactive)	73.8 µM (inactive)	36.9 µM (inactive)	–	–	> 100 µM (inactive)	61 µM (inactive)	49.7 µM (inactive)	28.8 µM (inactive)	28 µM (inactive)	12.4 µM (inactive)
COc1ccc2[nH]cc(CCNC(=O)[C@H](Cc3ccccc3)NC(=O)[C@@H](NCC(F)(F)F)C(C)C)c2c1	23.3 µM (inactive)	18.1 µM (inactive)	15.6 µM (inactive)	21.4 µM	21.2 µM (inactive)	12.1 µM (inactive)	18.2 µM (inactive)	21.4 µM (inactive)	18.5 µM (inactive)	18.3 µM (inactive)	16.5 µM (inactive)	–	22 µM (inactive)	22.1 µM (inactive)	8.17 µM (inactive)	19.8 µM (inactive)	36.2 µM (inactive)	11.2 µM (inactive)	–	18.3 µM (inactive)
COc1ccc2oc(=O)c(-c3cc4c(c(C)n3)c(=O)oc3ccc(OC)cc34)cc2c1	> 100 µM (inactive)	1.94 µM (inactive)	> 100 µM (inactive)	> 100 µM	> 100 µM (inactive)	> 100 µM (inactive)	> 100 µM (inactive)	> 100 µM (inactive)	> 100 µM (inactive)	> 100 µM (inactive)	> 100 µM (inactive)	70.8 µM (inactive)	> 100 µM (inactive)	> 100 µM (inactive)	> 100 µM (inactive)	> 100 µM (inactive)	> 100 µM (inactive)	95.7 µM (inactive)	55.8 µM (inactive)	–
O=C1NCC2(CCNCC2)N1	> 100 µM (inactive)	> 100 µM (inactive)	> 100 µM (inactive)	> 100 µM	> 100 µM (inactive)	> 100 µM (inactive)	> 100 µM (inactive)	> 100 µM (inactive)	> 100 µM (inactive)	> 100 µM (inactive)	> 100 µM (inactive)	–	> 100 µM (inactive)	> 100 µM (inactive)	> 100 µM (inactive)	> 100 µM (inactive)	> 100 µM (inactive)	> 100 µM (inactive)	> 100 µM (inactive)	> 100 µM (inactive)
CN(C)Cc1cc(/N=N/c2c(Cl)cccc2Cl)ccc1O	> 100 µM (inactive)	64.1 µM (inactive)	23.4 µM (inactive)	> 100 µM	61.4 µM (inactive)	31.9 µM (inactive)	> 100 µM (inactive)	85.7 µM (inactive)	> 100 µM (inactive)	8.49 µM (inactive)	> 100 µM (inactive)	> 100 µM (inactive)	> 100 µM (inactive)	74.3 µM (inactive)	74.8 µM (inactive)	88.9 µM (inactive)	48.9 µM (inactive)	> 100 µM (inactive)	> 100 µM (inactive)	–
C#C[C@]1(O)CC[C@H]2[C@@H]3CCC4=C/C(=N/NC(=O)c5cccc6cc7ccccc7nc56)CC[C@@H]4[C@H]3CC[C@@]21CC	45 µM (inactive)	34.4 µM (inactive)	> 100 µM (inactive)	56 µM	87.9 µM (inactive)	> 100 µM (inactive)	> 100 µM (inactive)	> 100 µM (inactive)	> 100 µM (inactive)	> 100 µM (inactive)	60.5 µM (inactive)	29.3 µM (inactive)	–	48.9 µM (inactive)	71.6 µM (inactive)	91.4 µM (inactive)	38.5 µM (inactive)	–	70 µM (inactive)	77.3 µM (inactive)
COc1cc(C2c3cc4c(cc3OC(NCCO)C2C)OCO4)cc(OC)c1O (configuration not stated)	19 µM (inactive)	8.26 µM (inactive)	20.4 µM (inactive)	3.44 µM	7.11 µM (inactive)	86.5 µM (inactive)	–	6.08 µM (inactive)	7.23 µM (inactive)	9.79 µM (inactive)	5.06 µM (inactive)	19.2 µM (inactive)	12.8 µM (inactive)	–	3.23 µM (inactive)	2.1 µM (inactive)	6.12 µM (inactive)	5.48 µM (inactive)	39.6 µM (inactive)	30.7 µM (inactive)
